This is an account of results in ChEMBL document CHEMBL1201862, “PubChem BioAssay data set” (2004).

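How tested: cells in 96-well plates exposed to compound for 48 hours at five concentrations. GI50 = concentration required for 50% inhibition of growth.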 Active and inactive are the calls of the source. Cut-off read from the data, not from the text of the source: active = GI50 up to about 1.1 µM and inactive = higher.

Among the test systems are SK-MEL-2; DU-145; SW-620; RPMI-8226; MCF7; TK-10; SF-539; SNB-75; SF-268; U-251; Hs-578T; LOX IMVI; MDA-MB-231; UO-31; KM12; PC-3; Malme-3M; MOLT-4; 786-0; UACC-257.
Common to all, as to assay: NCI anticancer screen, dose series, 48 h

Regarding `OCc1cn(Cc2ccccc2)c2ccccc12`, the GI50 with SK-MEL-2 was 2.56 µM (inactive); in the assay with DU-145, > 21.6 µM (inactive); with SW-620 it was 1.36 µM (inactive); with RPMI-8226, 2.16 µM (inactive); in the assay on MCF7, 0.612 µM (active); in the assay with TK-10 it was < 0.0359 µM (active). The GI50 in the assay with SF-539 was > 34.5 µM (inactive); in the assay on SNB-75, 1.51 µM (inactive); with SF-268, 14 µM (inactive); in the assay on U-251, 1.02 µM (active); in the assay on Hs-578T, 12.9 µM (inactive); in the assay on LOX IMVI it was 19.5 µM (inactive). Also, the GI50 with MDA-MB-231 was 19.5 µM (inactive); in the assay on UO-31, > 87.7 µM (inactive); with KM12, > 48 µM (inactive); with PC-3, 30.1 µM (inactive); in the assay on Malme-3M, 5.46 µM (inactive); with MOLT-4, > 47.3 µM (inactive). For the same compound, the GI50 in the assay with 786-0 was 10.7 µM (inactive).

Turning to `CCCCCCCCCCCC1NC(N)=NC(CCCO)=C1C(=O)OC` (configuration not stated), the GI50 with SK-MEL-2 was 1.63 µM (inactive); with DU-145, 9.35 µM (inactive); in the assay on SW-620 it was 1.61 µM (inactive); with RPMI-8226, 2.32 µM (inactive); in the assay with MCF7 it was 1.79 µM (inactive); with TK-10, 2.23 µM (inactive). For the same compound, the GI50 with SF-539 was 2.96 µM (inactive); in the assay on SNB-75, 2.79 µM (inactive); with SF-268, 2.48 µM (inactive); in the assay with U-251, 1.67 µM (inactive); in the assay with Hs-578T, 1.92 µM (inactive); in the assay with LOX IMVI it was 1.66 µM (inactive). In addition, the GI50 in the assay with MDA-MB-231 is 2.08 µM (inactive); with UO-31, 15.3 µM (inactive); in the assay with KM12 it was 1.61 µM (inactive); in the assay with PC-3, 1.1 µM (active); in the assay on UACC-257 it was 3.16 µM (inactive); in the assay with Malme-3M it was 5.12 µM (inactive). The results for the GI50 in the assay with MOLT-4 and in the assay with 786-0 were 1.86 µM (inactive) and 1.83 µM (inactive), respectively.

Regarding `CCn1c(=O)c2nc(SC)sc2n(-c2ccccc2)c1=S`, the GI50 is 28.6 µM (inactive) in the assay with SK-MEL-2; > 100 µM (inactive) in the assay with DU-145; 93.1 µM (inactive) in the assay with SW-620; 74.6 µM (inactive) in the assay with RPMI-8226; 76.4 µM (inactive) in the assay on MCF7; > 100 µM (inactive) in the assay with TK-10. Besides, the GI50 in the assay with SF-539 is 69.2 µM (inactive); with SNB-75 it was 91.2 µM (inactive); in the assay on SF-268, > 100 µM (inactive); in the assay on U-251, > 100 µM (inactive); with Hs-578T, 40.3 µM (inactive); in the assay on LOX IMVI, 42.5 µM (inactive). Further, the GI50 with MDA-MB-231 is > 100 µM (inactive); in the assay with UO-31 it was 16.6 µM (inactive); in the assay on KM12, 49.9 µM (inactive); in the assay on PC-3, 30.7 µM (inactive); in the assay on UACC-257, > 100 µM (inactive); with Malme-3M it was > 100 µM (inactive). The GI50 in the assay with MOLT-4 is 31.6 µM (inactive); with 786-0, > 100 µM (inactive).

`CC(C)OC(=O)Nc1c([N+](=O)[O-])cc(C(F)(F)F)cc1[N+](=O)[O-]`: the GI50 in the assay with SK-MEL-2 was > 73.1 µM (inactive); in the assay on DU-145 it was > 100 µM (inactive); in the assay on SW-620, > 100 µM (inactive); with RPMI-8226 it was > 100 µM (inactive); in the assay on MCF7, > 100 µM (inactive); in the assay on TK-10 it was > 100 µM (inactive). Further, the GI50 in the assay on SF-539 is 23.9 µM (inactive); in the assay with SNB-75, 5.38 µM (inactive); in the assay with SF-268 it was 39.4 µM (inactive); in the assay on U-251, 97.9 µM (inactive); with Hs-578T, 35.1 µM (inactive); with LOX IMVI, > 100 µM (inactive). The GI50 in the assay with MDA-MB-231 is 59.4 µM (inactive); with UO-31, > 90.2 µM (inactive); with KM12, > 100 µM (inactive); in the assay on PC-3, > 100 µM (inactive); in the assay on UACC-257, > 100 µM (inactive); in the assay on Malme-3M, > 100 µM (inactive). The GI50 in the assay on MOLT-4 was > 46.5 µM (inactive); with 786-0, 15.9 µM (inactive).

Take `C=C(Br)C/N=C/N(C)C`: the GI50 with SK-MEL-2, in the assay on DU-145, in the assay with RPMI-8226, in the assay on MCF7, in the assay on TK-10 and with SF-539 was > 100 µM (inactive) each time. Moreover, the GI50 in the assay with SNB-75, in the assay on SF-268, in the assay with U-251, in the assay on Hs-578T, in the assay on LOX IMVI and in the assay with MDA-MB-231 was > 100 µM (inactive) throughout. The GI50 in the assay on UO-31, in the assay on PC-3, in the assay on UACC-257, in the assay on Malme-3M, with MOLT-4 and in the assay on 786-0 was > 100 µM (inactive) in each case.

For `C=CC(C)(C)N[C@@H](C(=O)N1CCC[C@H]1c1nc(-c2nc(C(=O)OCC=C(C)C)c(C)o2)c(C)o1)C(C)C`, the GI50 in the assay with SK-MEL-2 was 34 µM (inactive); in the assay on DU-145, 17.2 µM (inactive); in the assay on SW-620, 22.3 µM (inactive); in the assay with RPMI-8226, 18.7 µM (inactive); in the assay with MCF7, 23.4 µM (inactive); in the assay on TK-10 it was 24.3 µM (inactive). The GI50 was 16.3 µM (inactive) in the assay on SF-539; 33.8 µM (inactive) in the assay on SNB-75; 20.9 µM (inactive) in the assay with SF-268; 21.1 µM (inactive) in the assay with U-251; 18 µM (inactive) in the assay with Hs-578T; 30.6 µM (inactive) in the assay with LOX IMVI. Besides, the GI50 in the assay with MDA-MB-231 is 21.3 µM (inactive); with UO-31 it was 14.3 µM (inactive); in the assay with KM12, 23 µM (inactive); with PC-3, 25.5 µM (inactive); with UACC-257 it was 20.5 µM (inactive); with Malme-3M, 18.6 µM (inactive). The GI50 was 15.2 µM (inactive) in the assay on MOLT-4 and 19.5 µM (inactive) in the assay on 786-0.

Take `COc1ccc(C2C(C(=O)c3ccccc3)=C(O)C(O)(CC(=O)c3ccccc3)N2c2ccc(OC)cc2)cc1` (configuration not stated): the GI50 is 16.1 µM (inactive) in the assay with SK-MEL-2; 38.4 µM (inactive) in the assay on DU-145; 9.08 µM (inactive) in the assay with SW-620; 5.04 µM (inactive) in the assay on RPMI-8226; 11.9 µM (inactive) with MCF7; 16.3 µM (inactive) with TK-10. Also, the GI50 in the assay with SF-539 is 24.4 µM (inactive); with SNB-75, 34.1 µM (inactive); in the assay on SF-268 it was 33.7 µM (inactive); with U-251, 8.09 µM (inactive); in the assay on Hs-578T, 28.6 µM (inactive); in the assay with LOX IMVI it was 15.2 µM (inactive). Also, the GI50 in the assay on MDA-MB-231 was 19.2 µM (inactive); with UO-31 it was 11.5 µM (inactive); in the assay on KM12 it was 11.2 µM (inactive); in the assay with PC-3, 11.6 µM (inactive); in the assay on UACC-257 it was 7.94 µM (inactive); in the assay with Malme-3M, 28 µM (inactive). For the same compound, the results for the GI50 in the assay on MOLT-4 and in the assay on 786-0 were 12.5 µM (inactive) and 16.8 µM (inactive), respectively.

Take `O=S(=O)(O)c1ccc2c(/N=N/c3ccc(S(=O)(=O)O)c4ccccc34)c(O)c(S(=O)(=O)O)cc2c1`: the GI50 with SK-MEL-2, in the assay with DU-145, with SW-620, in the assay on RPMI-8226, with MCF7 and in the assay on TK-10 was > 100 µM (inactive) throughout. For the same compound, the GI50 with SF-539, in the assay on SNB-75, in the assay on SF-268, in the assay on U-251, with Hs-578T and with LOX IMVI was > 100 µM (inactive) in each case. The GI50 in the assay on MDA-MB-231, in the assay with UO-31, in the assay with KM12, in the assay on PC-3, with UACC-257 and in the assay with Malme-3M was > 100 µM (inactive) each time. Besides, the GI50 with MOLT-4 and in the assay with 786-0 was > 100 µM (inactive) each time.

On to `CC(=O)OC(C)c1cc2c(s1)C(=O)c1scc(C(C)OC(C)=O)c1C2=O` (configuration not stated), for which the GI50 is 0.227 µM (active) in the assay with SK-MEL-2; 0.178 µM (active) in the assay on DU-145; 0.298 µM (active) with SW-620; 0.223 µM (active) in the assay with RPMI-8226; 0.251 µM (active) in the assay on MCF7; 0.571 µM (active) with TK-10. Further, the GI50 with SF-539 is 0.175 µM (active); with SNB-75 it was 0.185 µM (active); in the assay on SF-268 it was 0.211 µM (active); in the assay on U-251 it was 0.25 µM (active); in the assay with Hs-578T, 0.339 µM (active); with LOX IMVI, 0.118 µM (active). For the same compound, the GI50 with MDA-MB-231 is 0.473 µM (active); with UO-31 it was 0.204 µM (active); in the assay with KM12, 0.195 µM (active); with PC-3, 0.292 µM (active); with UACC-257 it was 0.174 µM (active); with Malme-3M, 0.139 µM (active). The GI50 with MOLT-4 was 0.324 µM (active); with 786-0, 0.244 µM (active).

As to `CN(C)CCNc1ccc(CO)c2oc3ccc(O)cc3c(=O)c12`, the GI50 was 16.6 µM (inactive) with SK-MEL-2; 20.1 µM (inactive) in the assay with DU-145; 8.97 µM (inactive) in the assay on SW-620; 12.3 µM (inactive) with RPMI-8226; 4.83 µM (inactive) in the assay on MCF7; 17.1 µM (inactive) in the assay on TK-10. Moreover, the GI50 in the assay on SF-539 was 12.3 µM (inactive); in the assay on SNB-75, 12.6 µM (inactive); with SF-268, 9.31 µM (inactive); in the assay on U-251, 12.4 µM (inactive); with Hs-578T, 14 µM (inactive); in the assay with LOX IMVI, 11.5 µM (inactive). Also, the GI50 was 17 µM (inactive) in the assay with MDA-MB-231; 10.5 µM (inactive) in the assay with UO-31; 14.4 µM (inactive) in the assay with KM12; 12.7 µM (inactive) in the assay with PC-3; 12.8 µM (inactive) in the assay with UACC-257; 13.5 µM (inactive) in the assay with Malme-3M. For the same compound, the results for the GI50 in the assay with MOLT-4 and with 786-0 were 2.47 µM (inactive) and 8.61 µM (inactive), respectively.
